The subject of test [1] is subjects with type 1 diabetes. As to the kind of experiment: 52-week randomized controlled clinical trial, basal insulin + prandial TI Inhalation Powder versus basal insulin + SC insulin aspart. It is filed as in vivo, human. To be noted: with basal insulin glargine. An excerpt:
This was a prospective, multi-country, multicenter, open label, randomized, controlled clinical trial comparing glycemic control in subjects with type 1 diabetes receiving basal insulin and prandial insulin-FDKP (TI) Inhalation Powder (TI Inhalation Powder group) with subjects receiving basal insulin and SC rapid-acting insulin aspart (comparator group). This study included a 52-week treatment phase and a 4-week follow- up phase. During the 4-week follow-up phase, pulmonary function and select clinical laboratory assessments were scheduled.
The study began with enrollment at Week−3. Subjects received a complete battery of safety and eligibility assessments, including HbA1c and fasting plasma glucose (FPG).
At Week−1, subjects were randomized to one of the following 2 treatments: Basal insulin+prandial TI Inhalation Powder Basal insulin+prandial SC rapid-acting insulin
At Week-1, subjects again completed the first three components of the Insulin Treatment Questionnaire (ITQ) for the purpose of assessing test-retest reliability only). After completing the questionnaire, subjects randomized to the TI Inhalation Powder group were trained on the MEDTONE® Inhaler using TECHNOSPHERE®/insulin (insulin-FDKP) inhalation powder; subjects in the comparator group were trained in the use of the NOVOLOG® pens; all subjects were trained in administration of LANTUS®. Additionally, all subjects were trained on a blood glucose monitoring (HBGM) meter provided at the beginning of the trial and diary and received diabetes education. Any training was repeated at Week 0, if needed.
At the beginning of the treatment phase, subjects had several titration/dose evaluation visits to adjust insulin therapy. Titration visits occurred once a week for the first 4 weeks. During Weeks 4 through 10, there were three telephone “visits” (at Week 6, Week 8, and Week 10) to titrate dose, if necessary. However, dose titration was allowed throughout the trial.
All subjects completed a 7-point blood glucose profile on any 3 days during the week immediately preceding each visit from Week 0 to Week 52. The 7 time points included samples from before breakfast and 2 hours after breakfast, before the mid-day meal and 2 hours after the mid-day meal, before the evening meal and 2 hours after the evening meal and at bedtime (7 time points a day, over 3 days). These blood glucose (BG) values were recorded in the HBGM diary that was collected at clinic visits. […]
A meal challenge test was performed at Week 4 (during dose titration), Week 26, and Week 52. […] Blood glucose (BG) was also measured using HBGM glucose meters to aid the Investigator in treatment decisions and values were obtained at −30, 0, 60, and 120 minutes during the meal challenge. […]

The conditions of test [2]: manufacturer's prescribing information (Mar. 2007 revision); cited from earlier work.

As to insulin aspart, in test [1] (52 weeks), the “mean FPG at the end of the treatment period” value is reported as 161.3 (SD 68.2) mg/dL. The “average body weight gain over the 52-week treatment period” value in test [1] turned out to be 1.4 kg. In test [1] (baseline 8.41 (SD 0.92) TI arm, 8.48 (SD 0.97) insulin aspart arm), the “HbA1c at Week 14” value was 8.07 (SD 1.09) %. Further, the “mean decrease in fasting plasma glucose (FPG) over the 52-week treatment period” value in test [1] (baseline 187.6 (SD 85.1) TI group, 180.8 (SD 86.9) comparator group) was 23.4 (SD 103.1) mg/dL.
With insulin glargine, the “period of relatively constant glucose lowering activity” value in test [2] is 24 h.
